Source: patent US20220132839A1, “MOSQUITO ATTRACTANT COMPOSITIONS” (UNIVERSITY OF WASHINGTON, priority 2019, published 2022)
Entries after “also recorded” stand apart in the source; their conditions may differ.

Tests used:
Aedes mosquitoes = assay: GC-EAD antennal responses, Aedes mosquitoes from the field
Source text: (§1) Electroantennogram signals were filtered and amplified (100×; 0.1-500 Hz) using an A-M 1800 amplifier (Sequim, Wash., USA) connected to a personal computer via a BNC-2090A analog-to-digital board (National Instruments, Austin, Tex., USA) and digitized at 20 Hz using WinEDR software (Strathclyde Electrophysiology Software, Glasgow, UK). A Hum Bug noise eliminator (Quest Scientific, Vancouver, Canada) was used to decrease electrical noise. The antennal responses to peaks eluting from the GC were measured for each mosquito preparation, and each peak and mosquito species. Bioactive peaks were those that elicited strong EAD responses, corresponding to deflections beyond the average noise floor of the baseline EAD signal. Responses by each individual preparation were used for Principal Component Analysis (Ade4 package, R). The responses of eight different mosquito species were tested to the scent extracts of three orchid species (n=8 mosquito species for P. obtusata; n=4 mosquito species each for P. stricta and P. huronensis; with 3-17 replicates per mosquito species per orchid, for a total of 109 GC-EAD experiments).
Individual mosquitoes were isolated in Falcon™ tubes (Thermo Fisher Scientific, Pittsburgh, Pa., USA) covered with a piece of fine mesh. They were maintained in a climatic chamber, as previously described, and identified immediately before running the experiment. Carbon dioxide delivered through a pad (Genesee Scientific, San Diego, Calif., USA) was used to briefly anesthetize mosquitoes before transferring them on ice for the dissection. The head was excised and the tip (i.e., one segment) of each antenna was cut off with fine scissors under a binocular microscope (Carl Zeiss, Oberkochen, Germany). The head was then mounted on an electrode composed of a silver wire 0.01″ (A-M Systems, Carlsbord, Wash., USA) and a borosilicate pulled capillary (Sutter Instrument Company, Novato, Calif., USA) filled with a 1:3 mix of saline (L. B. Thien, F. Utech, The mode of pollination in Habenaria obtusata (Orchidaceae). American Journal of Botany 57, 1031-1035 (1970) and electrode gel (Parker Laboratories, Fairfield, N.J., USA) in order to avoid the preparation to desiccate during the experiment. The head was mounted by the neck on the reference electrode. The preparation was then moved to the GC-EAD with the tips of the antennae inserted under the microscope (Optiphot-2, Nikon, Tokyo, Japan) into a recording electrode, that was identical to the reference electrode. The mounted antennae were oriented at 90° from the main airline which was carrying filtered air (Praxair, Danbury, Conn., USA) and volatiles eluting from the Gas-Chromatograph to the preparation via a 200° C. transfer line (EC-05; Syntech GmbH, Buchenbach, Germany). Five microliters of the orchid extract were injected into the Gas Chromatograph with Flame Ionization Detection (Agilent 7820A GC, Agilent Technologies; DB5 column, J&W Scientific, Folsom, Calif., USA). The oven program was the same as the one used for the GC-MS analyses of the scent extracts. The transfer line from the GC to the preparation was set to 200° C.

Culiseta mosquitoes = assay: GC-EAD antennal responses, Culiseta mosquitoes; parameters: species or system Culiseta sp.; details: peaks of the P. obtusata scent
Source text: as §1
Individual mosquitoes were isolated in Falcon™ tubes (Thermo Fisher Scientific, Pittsburgh, Pa., USA) covered with a piece of fine mesh. They were maintained in a climatic chamber, as previously described, and identified immediately before running the experiment. […]

[1] = system: Ae. increpitus mosquito antennal lobe (AL) glomeruli; assay: Two-photon calcium imaging (Fluo4) of the antennal lobe, Ae. increpitus; assay type: in vivo
Procedure: Odor-evoked responses in the Ae. increpitus mosquito antennal lobe (AL) with nine female mosquitoes at the beginning of the season when mosquitoes were relatively young (as defined by wing and scale appearance). Calcium imaging experiments were conducted using application of the calcium indicator Fluo4 to the mosquito brain and using a stage that allows simultaneous calcium imaging and tethered flight. The mosquito was cooled on ice and transferred to a Peltier-cooled holder that enables the mosquito to head to be fixed to the stage using ultraviolet glue. The custom stage permits the superfusion of saline to the head capsule and space for movement by the wings and proboscis. Once the mosquito was fixed to the stage, a window in its head was cut to expose the brain, and the brain was continuously superfused with physiological saline. Next, the perineural sheath was gently removed from the AL using fine forceps and 75 μL of the Fluo4 solution—made by […] of Fluo4 in 30 μL Pluronic F-127 and then subsequently diluted in 950 μL of mosquito physiological saline—was pipetted to the holder allowing the brain to be completely immersed in the dye. Mosquitoes were kept in the dark at 15° C. for 1.5 h (the appropriate time for adequate penetration of the dye into the tissue), after which the brain was washed 3 times with physiological saline. After the rinse, mosquitoes were kept in the dark at room temperature for approximately 10-20 min. before imaging.
Wing stroke amplitudes were acquired and analyzed using a custom camera-based computer vision system at frame rates of 100 Hz, where the mosquito was illuminated with infrared LEDs (880 nm) and images were collected with an infrared-sensitive camera synched to the two-photon system. Stimulus-evoked initiation of flight and changes in the amplitude of the wing-stroke envelope were characterized for each odor stimulus. Calcium-evoked responses in the AL were imaged using the Prairie Ultima IV two-photon excitation microscope (Prairie Technologies) and Ti-Sapphire laser (Chameleon Ultra; Coherent). Experiments were performed at a depth of 40 μm from the ventral surface of the AL, allowing the calcium dynamics from approximately 18-22 glomeruli to be repeatedly imaged across preparations. Images were collected at 2 Hz, and for each odor stimulus images were acquired for 35 s, starting 10 s before the stimulus onset. Imaging data were extracted in Fiji/ImageJ and imported into Matlab (v2017; Mathworks, Natick, Mass.) for Gaussian filtering (2×2 pixel; σ=1.5-3) and alignment using a single frame as the reference at a given imaging depth and subsequently registered to every frame to within ¼ pixel. Trigger-averaged ΔF/F was used for comparing glomerular responses between odor stimuli. […]

Q: Which results are given for `CCCCCCCCC=O` [nonanal]?
A: antennal responses (GC-EAD) (Aedes mosquitoes; peaks of the P. obtusata scent): evoked antennal responses; also recorded: consistent responses and one of the strongest relative responses; antennal responses (GC-EAD) (Aedes mosquitoes; scents of P. stricta and P. huronensis, Ae. increpitus, Ae. communis, Ae. canadensis and Culiseta sp.): all responded; antennal responses (GC-EAD) (Culiseta mosquitoes): very little response; AM2 glomerulus response ([1]; odor stimulation): often exhibited inhibition; LC2 glomerulus response ([1]; single odorants): strongest response
